# Measurements as given in patent publication EP4562004B1, “NOVEL 7-SUBSTITUTED INDOLE SULFONAMIDE DERIVATIVES” (F. Hoffmann-La Roche AG, priority 2022, dated 2024).
# Target: human GPR17 short isoform (Homo sapiens, UniProt Q13304)
# Experiment: GPR17 cAMP assay (antagonist mode, TR-FRET cAMP detection)
# Type: cell-based
# Conditions: CHO-K1 cells stably expressing human GPR17 short isoform; with EC80 concentration of agonist MDL29,951, IBMX 0.5mM, forskolin 15µM; normalized to reference antagonist; read-out: hGPR17 cAMP IC50
# Protocol: CHO-K1 cells stably expressing vector containing untagged human GPR17 short isoform (Roche) were cultured at 37°C / 5% CO2 in DMEM (Dulbecco's Modified Eagle Medium):F-12 (1:1) supplemented with 10% foetal bovine serum and 400 µg/ml Geneticin.
# Changes in intracellular cyclic adenosine monophosphate (cAMP) levels were quantified using the Nano-TRF Detection Assay kit (Roche Diagnostics, Cat. No. 05214386001). This assay allows for direct cAMP quantification in a homogeneous solution. cAMP is detected based on time-resolved fluorescence energy transfer (TR-FRET) and competitive binding of ruthenylated cAMP and endogenous cAMP to an anti-cAMP monoclonal antibody labeled with AlexaFluor-700. The Ruthenium complex serves as the FRET donor and transfers energy to AlexaFluor-700. The FRET signal is inversely proportional to the cAMP concentration.
# CHO-GPR17S cells were detached with Accutase and resuspended in assay buffer consisting of Hank's Balanced Salt Solution (HBSS), 10mM HEPES (4-(2-hydroxyethyl) piperazine-1-ethanesulfonic acid solution) and 0.1% bovine serum albumin (pH 7.4). The cells were seeded in black 384-well plates (Corning) at a density of 10'000 cells / 20µl assay buffer until the addition of compounds.
# Test antagonist compounds were serially diluted in dimethyl sulfoxide (DMSO) and spotted in 384-well plates. The compounds were then diluted in HBSS buffer supplemented with an EC80 concentration of MDL29,951 (3-(2-Carboxy-4,6-dichloroindol-3-yl)propionic acid) (GPR17 agonist) plus 3-Isobutyl-1-methylxanthine (IBMX) (0.5mM final concentration) and added to the cells at room temperature. Forskolin (15µM final concentration) was added 5 minutes after the test compounds and the cells were incubated at room temperature for 30 minutes. The assay was stopped by adding cAMP detection mix (containing detergents for cell lysis) for 90 minutes at room temperature.
# Cellular cAMP was measured using a Paradigm reader (Molecular Devices). The raw data was used to calculate the FRET signal based on the assay's P-factor as per cAMP kit instructions. The data was normalized to the maximal activity of a reference antagonist and dose response curves were fitted to the percent activity of the test compounds using a sigmoidal dose response model (Genedata Screener).
# Results in the hGPR17 cAMP assay are provided for compounds of formula I in Table 1 Table 1: […]
# Sequence of human GPR17 short isoform (Q13304 29-367): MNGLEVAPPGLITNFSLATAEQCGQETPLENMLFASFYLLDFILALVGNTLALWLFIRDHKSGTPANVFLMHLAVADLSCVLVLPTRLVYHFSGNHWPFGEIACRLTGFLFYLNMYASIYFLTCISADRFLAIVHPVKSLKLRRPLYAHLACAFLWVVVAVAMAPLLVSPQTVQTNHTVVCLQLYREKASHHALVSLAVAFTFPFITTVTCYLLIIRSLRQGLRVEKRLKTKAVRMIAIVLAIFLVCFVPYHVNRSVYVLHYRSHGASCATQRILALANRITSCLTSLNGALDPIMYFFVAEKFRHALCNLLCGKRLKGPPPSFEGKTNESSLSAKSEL
row,IC50 [nM],SMILES
1,25,"COc1nc(NS(=O)(=O)c2c[nH]c3c(-n4ccc(F)n4)c(Cl)ccc23)nc(OC)c1OCC(F)F [Example 53, 6-chloro-N-[5-(2,2-difluoroethoxy)-4,6-dimethoxy-pyrimidin-2-yl]-7-(3-fluoropyrazol-1-yl)-1H-indole-3-sulfonamide]"
2,65,"COc1nc(NS(=O)(=O)c2c[nH]c3c(-n4cccn4)c(C(F)F)ccc23)nc(OC)c1OCC(F)F [Example 50, N-[5-(2,2-difluoroethoxy)-4,6-dimethoxy-pyrimidin-2-yl]-6-(difluoromethyl)-7-pyrazol-1-yl-1H-indole-3-sulfonamide]"
3,52,"COc1nc(NS(=O)(=O)c2c[nH]c3c(-n4cccn4)c(Cl)ccc23)nc(OC)c1OCC#N [Example 69, 6-chloro-N-[5-(cyanomethoxy)-4,6-dimethoxy-pyrimidin-2-yl]-7-pyrazol-1-yl-1H-indole-3-sulfonamide]"
4,32,"COc1nc(NS(=O)(=O)c2c[nH]c3c(-n4nccn4)c(Cl)ccc23)nc(OC)c1OCC(F)F [Example 9, 6-chloro-N-[5-(2,2-difluoroethoxy)-4,6-dimethoxy-pyrimidin-2-yl]-7-(triazol-2-yl)-1H-indole-3-sulfonamide]"
5,31,"COc1nc(NS(=O)(=O)c2c[nH]c3c(-n4cccn4)c(Cl)ccc23)nc(OC)c1OCCF [Example 67, 6-chloro-N-[5-(2-fluoroethoxy)-4,6-dimethoxy-pyrimidin-2-yl]-7-pyrazol-1-yl-1H-indole-3-sulfonamide]"
6,29,"COc1nc(NS(=O)(=O)c2c[nH]c3c(-n4cc(C)cn4)c(Cl)ccc23)nc(OC)c1OCC(F)F [Example 43, 6-chloro-N-[5-(2,2-difluoroethoxy)-4,6-dimethoxy-pyrimidin-2-yl]-7-(4-methylpyrazol-1-yl)-1H-indole-3-sulfonamide]"
7,108,"COc1nc(NS(=O)(=O)c2c[nH]c3c(-n4cccn4)c(C(F)F)ccc23)nc(OC)c1OC(F)F [Example 49, N-[5-(difluoromethoxy)-4,6-dimethoxy-pyrimidin-2-yl]-6-(difluoromethyl)-7-pyrazol-1-yl-1H-indole-3-sulfonamide]"
8,64,"COc1nc(NS(=O)(=O)c2c[nH]c3c(-n4nccn4)c(C(F)F)ccc23)nc(OC)c1OCCF [Example 41, 6-(difluoromethyl)-N-[5-(2-fluoroethoxy)-4,6-dimethoxy-pyrimidin-2-yl]-7-(triazol-2-yl)-1H-indole-3-sulfonamide]"
9,68,"COc1nc(NS(=O)(=O)c2c[nH]c3c(-n4cccn4)c(C(F)F)ccc23)nc(OC)c1CC(F)F [Example 52, N-[5-(2,2-difluoroethyl)-4,6-dimethoxy-pyrimidin-2-yl]-6-(difluoromethyl)-7-pyrazol-1-yl-1H-indole-3-sulfonamide]"
10,27,"COc1nc(NS(=O)(=O)c2c[nH]c3c(-n4cccn4)c(Br)ccc23)nc(OC)c1OC(F)F [Example 77, 6-bromo-N-[5-(difluoromethoxy)-4,6-dimethoxy-pyrimidin-2-yl]-7-pyrazol-1-yl-1H-indole-3-sulfonamide]"
11,18,"COc1nc(NS(=O)(=O)c2c[nH]c3c(-n4cccn4)c(Br)ccc23)nc(OC)c1CC(F)F [Example 81, 6-bromo-N-[5-(2,2-difluoroethyl)-4,6-dimethoxy-pyrimidin-2-yl]-7-pyrazol-1-yl-1H-indole-3-sulfonamide]"

# The next lines start with the compound.
row,SMILES,IC50 [nM]
1,"[2H]C([2H])(c1cnc(NS(=O)(=O)c2c[nH]c3c(-n4cccn4)c(Cl)ccc23)nc1OC)C(F)F [Example 72, 6-chloro-N-[5-(1,1-dideuterio-2,2-difluoroethyl)-4-methoxy-pyrimidin-2-yl]-7-pyrazol-1-yl-1H-indole-3-sulfonamide]",41
2,"COc1nc(NS(=O)(=O)c2c[nH]c3c(-n4nccn4)c(Br)ccc23)nc(OC)c1OCCF [Example 28, 6-bromo-N-[5-(2-fluoroethoxy)-4,6-dimethoxy-pyrimidin-2-yl]-7-(triazol-2-yl)-1H-indole-3-sulfonamide]",27
3,"COc1nc(NS(=O)(=O)c2c[nH]c3c(-n4nccn4)c(Cl)ccc23)ncc1OCCF [Example 12, 6-chloro-N-[5-(2-fluoroethoxy)-4-methoxy-pyrimidin-2-yl]-7-(triazol-2-yl)-1H-indole-3-sulfonamide]",52
4,"COc1nc(NS(=O)(=O)c2c[nH]c3c(-n4nccn4)c(C(F)F)ccc23)nc(OC)c1CC(F)F [Example 42, N-[5-(2,2-difluoroethyl)-4,6-dimethoxy-pyrimidin-2-yl]-6-(difluoromethyl)-7-(triazol-2-yl)-1H-indole-3-sulfonamide]",50
5,"COc1nc(NS(=O)(=O)c2c[nH]c3c(-n4nccn4)c(F)ccc23)nc(OC)c1C1CC1C#N (stereo not shown) [Example 36, N-[5-(2-cyanocyclopropyl)-4,6-dimethoxy-pyrimidin-2-yl]-6-fluoro-7-(triazol-2-yl)-1H-indole-3-sulfonamide]",82
6,"COc1nc(NS(=O)(=O)c2c[nH]c3c(-n4nccn4)c(Cl)ccc23)nc(OC)c1CC(F)F [Example 7, 6-chloro-N-[5-(2,2-difluoroethyl)-4,6-dimethoxy-pyrimidin-2-yl]-7-(triazol-2-yl)-1H-indole-3-sulfonamide]",21
7,"[2H]C([2H])(F)C([2H])([2H])Oc1c(OC)nc(NS(=O)(=O)c2c[nH]c3c(-n4cccn4)c(Cl)ccc23)nc1OC [Example 68, 6-chloro-N-[4,6-dimethoxy-5-(1,1,2,2-tetradeuterio-2-fluoro-ethoxy)pyrimidin-2-yl]-7-pyrazol-1-yl-1H-indole-3-sulfonamide]",36
8,"COc1nc(NS(=O)(=O)c2c[nH]c3c(-n4cc(F)cn4)c(Cl)ccc23)nc(OC)c1OC(F)F [Example 48, 6-chloro-N-[5-(difluoromethoxy)-4,6-dimethoxy-pyrimidin-2-yl]-7-(4-fluoropyrazol-1-yl)-1H-indole-3-sulfonamide]",69
9,"COc1nc(NS(=O)(=O)c2c[nH]c3c(-n4nccn4)c(Cl)ccc23)nc(OC)c1OCCF [Example 14, 6-chloro-N-[5-(2-fluoroethoxy)-4,6-dimethoxy-pyrimidin-2-yl]-7-(triazol-2-yl)-1H-indole-3-sulfonamide]",28
10,"COc1nc(NS(=O)(=O)c2c[nH]c3c(-n4nccn4)c(C)ccc23)nc(OC)c1CC(F)F [Example 22, N-[5-(2,2-difluoroethyl)-4,6-dimethoxy-pyrimidin-2-yl]-6-methyl-7-(triazol-2-yl)-1H-indole-3-sulfonamide]",21
11,"COc1nc(NS(=O)(=O)c2c[nH]c3c(-n4nccn4)c(C)ccc23)nc(OC)c1C1CC1C#N (stereo not shown) [Example 26, N-[5-(2-cyanocyclopropyl)-4,6-dimethoxy-pyrimidin-2-yl]-6-methyl-7-(triazol-2-yl)-1H-indole-3-sulfonamide]",25
12,"COc1nc(NS(=O)(=O)c2c[nH]c3c(-n4nccn4)cccc23)nc(OC)c1OCC(F)F [Example 20, N-[5-(2,2-difluoroethoxy)-4,6-dimethoxy-pyrimidin-2-yl]-7-(triazol-2-yl)-1H-indole-3-sulfonamide]",447
13,"COc1nc(NS(=O)(=O)c2c[nH]c3c(-n4cccn4)c(Cl)ccc23)nc(OC)c1CCC#N [Example 70, 6-chloro-N-[5-(2-cyanoethyl)-4,6-dimethoxy-pyrimidin-2-yl]-7-pyrazol-1-yl-1H-indole-3-sulfonamide]",37
14,"COc1nc(NS(=O)(=O)c2c[nH]c3c(-n4nccn4)c(Cl)ccc23)ncc1CC(F)F [Example 78, 6-chloro-N-[5-(2,2-difluoroethyl)-4-methoxy-pyrimidin-2-yl]-7-(triazol-2-yl)-1H-indole-3-sulfonamide]",55
15,"COc1nc(NS(=O)(=O)c2c[nH]c3c(-n4nccn4)c(Cl)ccc23)nc(OC)c1CCC(F)F [Example 17, 6-chloro-N-[5-(3,3-difluoropropyl)-4,6-dimethoxy-pyrimidin-2-yl]-7-(triazol-2-yl)-1H-indole-3-sulfonamide]",24
16,"COc1nc(NS(=O)(=O)c2c[nH]c3c(-n4nccn4)c(Cl)ccc23)nc(OC)c1OCC#N [Example 60, 6-chloro-N-[5-(cyanomethoxy)-4,6-dimethoxy-pyrimidin-2-yl]-7-(triazol-2-yl)-1H-indole-3-sulfonamide]",49
17,"COc1nc(NS(=O)(=O)c2c[nH]c3c(-n4ccc(F)n4)c(Cl)ccc23)nc(OC)c1CC(F)F [Example 55, 6-chloro-N-[5-(2,2-difluoroethyl)-4,6-dimethoxy-pyrimidin-2-yl]-7-(3-fluoropyrazol-1-yl)-1H-indole-3-sulfonamide]",25
